# Measurements as given in patent US6545038B1, “Heterocyclic metalloprotease inhibitors” (The Procter & Gamble Company, priority 1996, dated 2003).
# Test: Method of use Example B: daily capsule in a subject suffering from osteoarthritis
# Format: in vivo
# Settings: human male, capsule containing 70 mg daily for 5 years
# Procedure: A human subject weighing 90 kg (198 lbs), suffering from osteoarthritis, is treated by a method of this invention. Specifically, for 5 years, a capsule containing 70 mg of Example 3 is administered daily to said subject.
compound,measurement,value
"COc1ccc(S(=O)(=O)N2CCCSC(C)(C)[C@@H]2C(=O)N(C)O)cc1 [Example 3, 3(S)-N-Hydroxy-N-methyl-2,2-dimethyl-4N-[(4-methoxyphenyl)sulfonyl]-thiazepine-3-carboxamide]","erosion/fibrillation of the articular cartilage, examined via orthoscopy",no further advancement of erosion/fibrillation of the articular cartilage
